How the values were obtained:
acute ischaemic stroke = details: secondary stroke prevention in cerebral stroke patients, aspirin/other antiplatelets/anticoagulant; cited from earlier work
blood coagulation = assay: Phase IV open-label study NeuroAid®/aspirin interaction in healthy volunteers, 5 coagulation tests; assay type: in vivo, human; details: 11 healthy volunteers per group
Procedure: Blood samples of the subjects were collected before they received treatment and 2 and 8 hours after treatment initiation.

Acute Ischemic Stroke = details: cited from earlier work
[1] = clinical stroke trials, versus placebo

Activated Partial Prothrombine Time, Mean (blood coagulation; T + 2 hours)	D-Dimer, Mean (blood coagulation; T + 2 hours)	Fibrinogen, Mean (blood coagulation; T + 2 hours)	Platelet Aggregation, Mean (blood coagulation; T + 2 hours)	D-Dimer, Mean (blood coagulation; T + 8 hours)	Fibrinogen, Mean (blood coagulation; T + 8 hours)	Platelet Aggregation, Mean (blood coagulation; T + 8 hours)	Activated Partial Prothrombine Time, Mean (blood coagulation; T = 0, before treatment)	D-Dimer, Mean (blood coagulation; T = 0, before treatment)	Fibrinogen, Mean (blood coagulation; T = 0, before treatment)	Platelet Aggregation, Mean (blood coagulation; T = 0, before treatment)	Quick Prothrombine Time, Mean (blood coagulation; T = 0, before treatment)	Compound	improvement effect (acute ischaemic stroke)	cognitive function as measured by the Mini Mental Status Examination (Acute Ischemic Stroke; [1])	functional outcome as measured by the Barthel Index and Rankin scale (Acute Ischemic Stroke; [1])	neurologic evaluation as measured by the NIH stroke scale (Acute Ischemic Stroke; [1])	complete recovery at 3 months (Acute Ischemic Stroke; oral Citicoline, acute ischemic stroke, Davalos et al. 2002)
39.0 s	0.16 µg/mL	3.2 G/L	62.87 Percentage	0.16 µg/mL	3.0 G/L	48.01 Percentage	38.8 s	0.16 µg/mL	3.2 G/L	62.82 Percentage	12.9 s	CC(=O)Oc1ccccc1C(=O)O [Aspirin alone, Acetylsalicylic Acid]	about 1%				
												C[N+](C)(C)CCOP(=O)(O)OP(=O)([O-])OC[C@H]1O[C@@H](n2ccc(N)nc2=O)[C@H](O)[C@@H]1O [Citicoline, CDP-choline]		significant difference between the groups, favoring citicoline treatment	significant difference between the groups, favoring citicoline treatment	significant difference between the groups, favoring citicoline treatment	improve complete recovery at 3 months
